The data set is described as follows: in vitro. The note with it: human. Type of data set: cell-based.

For the compound `C[C@]12C=CC(=O)C=C1CC[C@@H]1[C@@H]2[C@@H](O)C[C@@]2(C)[C@H]1C[C@H]1O[C@@H](C3CCCCC3)O[C@]12C(=O)CO` [Cic2, desisobutyryl ciclesonide], the CC50 was more than 30 µM.

On to `CC(C)C(=O)OCC(=O)[C@@]12O[C@H](C3CCCCC3)O[C@@H]1C[C@H]1[C@@H]3CCC4=CC(=O)C=C[C@]4(C)[C@H]3[C@@H](O)C[C@@]12C` [Cic, Ciclesonide], for which the CC50 is more than 30 µM.

As usually defined, the CC50 is the concentration at which the toxic effect on the cells reaches its halfway point. The low end stands for greater toxicity to the cells, the high end for lower toxicity to the cells.

For the origin of these results see article PMC9014634 (Journal of Pharmacological Sciences, 2022).
